Legend:
[1] = tested on: Tyrosine-protein kinase ABL1 (Homo sapiens), P00519 [H396P]; conditions: Compound concentration 1000.0 nM
[2] = target: Tyrosine-protein kinase ABL1 (Homo sapiens) (UniProt P00519); conditions: Compound concentration 1000.0 nM
[3] = target: Protein-tyrosine kinase 6 (Homo sapiens) (UniProt Q13882); conditions: Compound concentration 1000.0 nM
[4] = target: Cyclin-dependent kinase 9 (Homo sapiens) (UniProt P50750); conditions: Compound concentration 1000.0 nM
[5] = target: Serine/threonine-protein kinase Chk1 (Homo sapiens) (UniProt O14757); conditions: Compound concentration 1000.0 nM
[6] = target: Macrophage colony-stimulating factor 1 receptor (Homo sapiens) (UniProt P07333); conditions: Compound concentration 1000.0 nM
[7] = target: Casein kinase I isoform alpha-like (Homo sapiens) (UniProt Q8N752); conditions: Compound concentration 1000.0 nM
[8] = target: Dual specificity tyrosine-phosphorylation-regulated kinase 2 (Homo sapiens) (UniProt Q92630); conditions: Compound concentration 1000.0 nM
[9] = tested on: Epidermal growth factor receptor (Homo sapiens), P00533 [L858R]; conditions: Compound concentration 1000.0 nM
[10] = tested on: Epidermal growth factor receptor (Homo sapiens), P00533 [L858R,T790M]; conditions: Compound concentration 1000.0 nM
[11] = target: Ephrin type-A receptor 6 (Homo sapiens) (UniProt Q9UF33); conditions: Compound concentration 1000.0 nM
[12] = target: Ephrin type-B receptor 3 (Homo sapiens) (UniProt P54753); conditions: Compound concentration 1000.0 nM
[13] = target: Ephrin type-B receptor 6 (Homo sapiens) (UniProt O15197); conditions: Compound concentration 1000.0 nM
[14] = target: Receptor tyrosine-protein kinase erbB-2 (Homo sapiens) (UniProt P04626); conditions: Compound concentration 1000.0 nM
[15] = target: Receptor tyrosine-protein kinase erbB-4 (Homo sapiens) (UniProt Q15303); conditions: Compound concentration 1000.0 nM
[16] = target: Mitogen-activated protein kinase 7 (Homo sapiens) (UniProt Q13164); conditions: Compound concentration 1000.0 nM
Mitogen-activated protein kinase 7 (Homo sapiens), sequence (Q13164 2-816 limits assumed): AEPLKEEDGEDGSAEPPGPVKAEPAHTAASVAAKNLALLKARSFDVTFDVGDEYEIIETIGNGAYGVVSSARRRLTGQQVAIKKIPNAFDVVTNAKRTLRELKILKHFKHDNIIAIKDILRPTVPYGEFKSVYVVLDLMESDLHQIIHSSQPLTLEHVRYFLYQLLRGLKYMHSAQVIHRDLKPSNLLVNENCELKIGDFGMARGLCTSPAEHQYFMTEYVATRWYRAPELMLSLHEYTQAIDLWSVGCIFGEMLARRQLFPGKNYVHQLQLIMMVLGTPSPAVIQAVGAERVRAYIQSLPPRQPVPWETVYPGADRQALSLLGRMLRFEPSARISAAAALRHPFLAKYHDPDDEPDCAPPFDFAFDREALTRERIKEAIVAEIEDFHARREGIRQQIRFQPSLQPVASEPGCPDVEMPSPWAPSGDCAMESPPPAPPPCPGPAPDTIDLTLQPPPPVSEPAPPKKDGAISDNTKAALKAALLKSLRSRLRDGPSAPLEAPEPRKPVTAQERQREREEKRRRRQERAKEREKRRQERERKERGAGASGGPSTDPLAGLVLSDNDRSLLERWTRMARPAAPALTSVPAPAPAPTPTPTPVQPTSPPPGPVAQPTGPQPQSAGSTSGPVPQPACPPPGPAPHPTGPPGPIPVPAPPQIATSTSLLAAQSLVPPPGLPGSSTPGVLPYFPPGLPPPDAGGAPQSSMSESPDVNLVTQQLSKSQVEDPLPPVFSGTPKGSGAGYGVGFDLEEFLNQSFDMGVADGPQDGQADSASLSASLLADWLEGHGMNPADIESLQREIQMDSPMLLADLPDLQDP

[17] = target: Cyclin-G-associated kinase (Homo sapiens) (UniProt O14976); conditions: Compound concentration 1000.0 nM
Cyclin-G-associated kinase (Homo sapiens), sequence (O14976 whole entry): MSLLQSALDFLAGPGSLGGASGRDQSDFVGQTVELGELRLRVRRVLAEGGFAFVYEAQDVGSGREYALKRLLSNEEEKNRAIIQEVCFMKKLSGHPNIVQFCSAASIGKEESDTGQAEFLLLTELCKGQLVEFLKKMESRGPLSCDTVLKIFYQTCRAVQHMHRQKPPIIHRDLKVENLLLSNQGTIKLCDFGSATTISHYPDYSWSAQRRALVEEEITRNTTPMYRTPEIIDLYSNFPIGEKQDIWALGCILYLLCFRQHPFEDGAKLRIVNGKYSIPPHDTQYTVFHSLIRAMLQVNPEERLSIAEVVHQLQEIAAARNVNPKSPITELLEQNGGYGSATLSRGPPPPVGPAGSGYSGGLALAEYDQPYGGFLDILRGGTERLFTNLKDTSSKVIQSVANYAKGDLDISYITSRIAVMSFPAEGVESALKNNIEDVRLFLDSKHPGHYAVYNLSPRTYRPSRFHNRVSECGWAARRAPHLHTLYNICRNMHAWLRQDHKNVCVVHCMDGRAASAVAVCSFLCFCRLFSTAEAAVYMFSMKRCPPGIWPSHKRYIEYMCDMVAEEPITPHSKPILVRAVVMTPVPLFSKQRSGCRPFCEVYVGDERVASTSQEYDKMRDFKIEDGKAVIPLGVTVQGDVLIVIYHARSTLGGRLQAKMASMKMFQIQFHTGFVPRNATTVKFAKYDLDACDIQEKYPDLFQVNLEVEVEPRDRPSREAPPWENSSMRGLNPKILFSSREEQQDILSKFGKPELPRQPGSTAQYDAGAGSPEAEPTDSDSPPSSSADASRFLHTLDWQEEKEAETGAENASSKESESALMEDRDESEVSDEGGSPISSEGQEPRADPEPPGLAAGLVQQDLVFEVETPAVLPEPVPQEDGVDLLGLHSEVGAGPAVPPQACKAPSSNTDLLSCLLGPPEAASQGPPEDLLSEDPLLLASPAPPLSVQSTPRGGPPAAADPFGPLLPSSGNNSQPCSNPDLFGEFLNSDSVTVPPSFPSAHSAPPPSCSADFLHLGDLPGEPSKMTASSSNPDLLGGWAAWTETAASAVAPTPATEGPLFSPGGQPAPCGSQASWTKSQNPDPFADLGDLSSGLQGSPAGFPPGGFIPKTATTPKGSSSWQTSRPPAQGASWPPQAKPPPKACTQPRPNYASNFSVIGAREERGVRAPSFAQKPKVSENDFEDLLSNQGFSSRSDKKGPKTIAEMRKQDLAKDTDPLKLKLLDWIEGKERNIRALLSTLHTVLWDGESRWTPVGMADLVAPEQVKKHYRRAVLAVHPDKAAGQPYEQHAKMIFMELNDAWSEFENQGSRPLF

[18] = target: Interleukin-1 receptor-associated kinase 3 (Homo sapiens) (UniProt Q9Y616); conditions: Compound concentration 1000.0 nM
[19] = target: Tyrosine-protein kinase JAK2 (Homo sapiens) (UniProt O60674); conditions: Compound concentration 1000.0 nM
[20] = tested on: Mast/stem cell growth factor receptor Kit (Homo sapiens), P10721 [A829P]; conditions: Compound concentration 1000.0 nM
[21] = target: Serine/threonine-protein kinase LATS2 (Homo sapiens) (UniProt Q9NRM7); conditions: Compound concentration 1000.0 nM
Serine/threonine-protein kinase LATS2 (Homo sapiens), sequence (Q9NRM7 whole entry): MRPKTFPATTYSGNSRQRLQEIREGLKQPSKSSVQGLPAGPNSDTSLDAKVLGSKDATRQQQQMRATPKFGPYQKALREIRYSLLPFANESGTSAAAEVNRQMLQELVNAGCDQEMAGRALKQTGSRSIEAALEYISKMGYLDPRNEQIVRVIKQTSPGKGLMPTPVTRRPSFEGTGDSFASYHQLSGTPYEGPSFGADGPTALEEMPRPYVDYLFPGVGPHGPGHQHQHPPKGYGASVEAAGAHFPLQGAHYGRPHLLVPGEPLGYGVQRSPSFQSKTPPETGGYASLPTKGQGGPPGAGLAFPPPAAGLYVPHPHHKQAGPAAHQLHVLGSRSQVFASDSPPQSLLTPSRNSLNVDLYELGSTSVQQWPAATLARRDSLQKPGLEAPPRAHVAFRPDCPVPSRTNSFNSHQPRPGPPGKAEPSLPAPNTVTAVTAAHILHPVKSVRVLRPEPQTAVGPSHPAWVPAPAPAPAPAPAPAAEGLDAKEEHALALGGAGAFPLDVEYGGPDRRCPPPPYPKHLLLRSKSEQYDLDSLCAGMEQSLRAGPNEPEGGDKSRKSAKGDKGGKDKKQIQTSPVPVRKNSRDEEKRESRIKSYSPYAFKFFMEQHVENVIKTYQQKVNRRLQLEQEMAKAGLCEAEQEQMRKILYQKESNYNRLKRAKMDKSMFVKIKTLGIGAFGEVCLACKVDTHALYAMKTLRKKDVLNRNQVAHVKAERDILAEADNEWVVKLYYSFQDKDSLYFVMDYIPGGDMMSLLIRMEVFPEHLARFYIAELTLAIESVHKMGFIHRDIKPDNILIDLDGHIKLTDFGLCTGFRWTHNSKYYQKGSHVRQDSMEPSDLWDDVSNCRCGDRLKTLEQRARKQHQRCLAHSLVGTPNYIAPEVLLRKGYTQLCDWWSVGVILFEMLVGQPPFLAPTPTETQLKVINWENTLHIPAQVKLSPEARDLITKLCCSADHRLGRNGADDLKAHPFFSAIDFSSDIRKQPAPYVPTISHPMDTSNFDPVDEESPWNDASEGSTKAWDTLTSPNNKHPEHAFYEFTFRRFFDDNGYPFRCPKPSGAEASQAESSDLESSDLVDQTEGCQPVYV

[22] = target: Dual specificity mitogen-activated protein kinase kinase 3 (Homo sapiens) (UniProt P46734); conditions: Compound concentration 1000.0 nM
[23] = target: Tyrosine-protein kinase Mer (Homo sapiens) (UniProt Q12866); conditions: Compound concentration 1000.0 nM
[24] = target: Mitogen-activated protein kinase kinase kinase 11 (Homo sapiens) (UniProt Q16584); conditions: Compound concentration 1000.0 nM
[25] = target: Serine/threonine-protein kinase 24 (Homo sapiens) (UniProt Q9Y6E0); conditions: Compound concentration 1000.0 nM
[26] = target: Myosin light chain kinase family member 4 (Homo sapiens) (UniProt Q86YV6); conditions: Compound concentration 1000.0 nM
Myosin light chain kinase family member 4 (Homo sapiens), sequence (Q86YV6 whole entry): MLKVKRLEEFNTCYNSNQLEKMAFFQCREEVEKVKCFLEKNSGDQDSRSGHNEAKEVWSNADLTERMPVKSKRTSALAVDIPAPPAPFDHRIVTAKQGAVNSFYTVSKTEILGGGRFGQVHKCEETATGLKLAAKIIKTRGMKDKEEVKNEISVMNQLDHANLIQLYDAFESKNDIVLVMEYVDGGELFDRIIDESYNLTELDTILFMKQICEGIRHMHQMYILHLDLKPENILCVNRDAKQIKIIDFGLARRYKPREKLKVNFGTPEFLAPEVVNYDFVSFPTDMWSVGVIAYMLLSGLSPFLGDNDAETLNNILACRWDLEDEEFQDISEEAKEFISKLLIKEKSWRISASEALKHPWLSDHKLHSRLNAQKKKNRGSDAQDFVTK

[27] = target: Myosin-IIIa (Homo sapiens) (UniProt Q8NEV4); conditions: Compound concentration 1000.0 nM
[28] = target: Myosin-IIIb (Homo sapiens) (UniProt Q8WXR4); conditions: Compound concentration 1000.0 nM
[29] = target: Mitogen-activated protein kinase 11 (Homo sapiens) (UniProt Q15759); conditions: Compound concentration 1000.0 nM
Mitogen-activated protein kinase 11 (Homo sapiens), sequence (Q15759 whole entry): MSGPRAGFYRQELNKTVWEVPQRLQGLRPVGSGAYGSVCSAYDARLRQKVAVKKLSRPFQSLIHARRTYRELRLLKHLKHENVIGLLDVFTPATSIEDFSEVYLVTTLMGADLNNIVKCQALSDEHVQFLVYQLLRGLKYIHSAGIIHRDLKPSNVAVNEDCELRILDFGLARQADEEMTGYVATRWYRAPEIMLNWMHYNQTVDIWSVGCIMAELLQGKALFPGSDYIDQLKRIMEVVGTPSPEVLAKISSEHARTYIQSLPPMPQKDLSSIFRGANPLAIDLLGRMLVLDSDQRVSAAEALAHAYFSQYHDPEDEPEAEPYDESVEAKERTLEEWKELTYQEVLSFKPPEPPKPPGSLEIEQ

[30] = target: Serine/threonine-protein kinase PAK 6 (Homo sapiens) (UniProt Q9NQU5); conditions: Compound concentration 1000.0 nM
[31] = target: Cyclin-dependent kinase 18 (Homo sapiens) (UniProt Q07002); conditions: Compound concentration 1000.0 nM
[32] = tested on: Phosphatidylinositol 4,5-bisphosphate 3-kinase catalytic subunit alpha isoform (Homo sapiens), P42336 [E545K]; conditions: Compound concentration 1000.0 nM
[33] = tested on: Phosphatidylinositol 4,5-bisphosphate 3-kinase catalytic subunit alpha isoform (Homo sapiens), P42336 [Q546K]; conditions: Compound concentration 1000.0 nM
[34] = target: Phosphatidylinositol 5-phosphate 4-kinase type-2 beta (Homo sapiens) (UniProt P78356); conditions: Compound concentration 1000.0 nM
Phosphatidylinositol 5-phosphate 4-kinase type-2 beta (Homo sapiens), sequence (P78356 whole entry): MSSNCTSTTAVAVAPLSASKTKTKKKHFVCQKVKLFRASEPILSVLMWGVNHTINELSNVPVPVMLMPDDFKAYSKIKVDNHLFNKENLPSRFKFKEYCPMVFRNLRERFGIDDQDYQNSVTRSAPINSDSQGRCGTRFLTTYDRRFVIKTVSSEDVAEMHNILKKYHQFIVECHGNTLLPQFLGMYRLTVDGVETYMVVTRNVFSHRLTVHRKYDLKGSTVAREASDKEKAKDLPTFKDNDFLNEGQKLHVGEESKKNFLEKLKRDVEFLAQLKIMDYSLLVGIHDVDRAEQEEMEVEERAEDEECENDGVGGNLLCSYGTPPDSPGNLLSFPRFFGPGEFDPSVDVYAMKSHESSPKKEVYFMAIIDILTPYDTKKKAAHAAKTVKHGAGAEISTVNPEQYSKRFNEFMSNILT

[35] = target: Serine/threonine-protein kinase PLK3 (Homo sapiens) (UniProt Q9H4B4); conditions: Compound concentration 1000.0 nM
[36] = target: Serine/threonine-protein kinase PRP4 homolog (Homo sapiens) (UniProt Q13523); conditions: Compound concentration 1000.0 nM
[37] = target: Serine/threonine-protein kinase RIO3 (Homo sapiens) (UniProt O14730); conditions: Compound concentration 1000.0 nM
[38] = target: Ribosomal protein S6 kinase alpha-5 (Homo sapiens) (UniProt O75582); conditions: Compound concentration 1000.0 nM
[39] = target: STE20-like serine/threonine-protein kinase (Homo sapiens) (UniProt Q9H2G2); conditions: Compound concentration 1000.0 nM
[40] = target: SRSF protein kinase 2 (Homo sapiens) (UniProt P78362); conditions: Compound concentration 1000.0 nM
[41] = target: Mitogen-activated protein kinase kinase kinase 7 (Homo sapiens) (UniProt O43318); conditions: Compound concentration 1000.0 nM
[42] = target: Non-receptor tyrosine-protein kinase TNK1 (Homo sapiens) (UniProt Q13470); conditions: Compound concentration 1000.0 nM
[43] = target: Wee1-like protein kinase (Homo sapiens) (UniProt P30291); conditions: Compound concentration 1000.0 nM
Wee1-like protein kinase (Homo sapiens), sequence (P30291 whole entry, looked up): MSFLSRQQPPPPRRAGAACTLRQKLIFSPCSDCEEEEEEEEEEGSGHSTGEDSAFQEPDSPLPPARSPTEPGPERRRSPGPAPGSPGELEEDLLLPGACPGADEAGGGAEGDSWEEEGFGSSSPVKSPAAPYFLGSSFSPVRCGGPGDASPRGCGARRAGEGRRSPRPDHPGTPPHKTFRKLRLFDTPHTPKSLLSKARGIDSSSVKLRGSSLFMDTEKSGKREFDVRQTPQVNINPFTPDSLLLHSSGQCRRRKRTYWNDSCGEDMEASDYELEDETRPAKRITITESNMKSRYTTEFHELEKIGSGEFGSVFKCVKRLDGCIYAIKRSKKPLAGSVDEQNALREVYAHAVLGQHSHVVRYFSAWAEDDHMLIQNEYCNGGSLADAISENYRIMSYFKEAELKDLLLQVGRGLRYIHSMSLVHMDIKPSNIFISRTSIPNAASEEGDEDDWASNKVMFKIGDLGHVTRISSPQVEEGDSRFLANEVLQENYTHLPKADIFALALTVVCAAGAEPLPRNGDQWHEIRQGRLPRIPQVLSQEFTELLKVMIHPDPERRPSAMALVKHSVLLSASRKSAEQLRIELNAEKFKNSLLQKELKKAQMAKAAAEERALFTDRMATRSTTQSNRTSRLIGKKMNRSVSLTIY

[44] = target: Serine/threonine-protein kinase 32C (Homo sapiens) (UniProt Q86UX6); conditions: Compound concentration 1000.0 nM
[45] = target: Histamine H4 receptor (Homo sapiens) (UniProt Q9H3N8); conditions: Compound concentration 10.0 uM

Cn1cncc1[C@@](O)(COc1ccc(C#N)cc1-c1ccc(OC(F)(F)F)cc1)c1ccc(C#N)cc1 [A-108] gave a residual activity [1] of 88%, a residual activity [2] of 95% and a residual activity [3] of 100%. It also gave a residual activity [4] of 100%, a residual activity [5] of 100% and a residual activity [6] of 100%. The residual activity [7] was 100%, the residual activity [8] was 89% and the residual activity [9] was 100%. It also gave a residual activity [10] of 96%, a residual activity [11] of 3% and a residual activity [12] of 6%. The residual activity [13] was 100%, the residual activity [14] was 94% and the residual activity [15] was 100%. It also gave a residual activity [16] of 93%, a residual activity [17] of 91% and a residual activity [18] of 91%. For the same compound, the residual activity [19] was 65%, the residual activity [20] was 100% and the residual activity [21] was 100%. It also gave a residual activity [22] of 100%, a residual activity [23] of 69% and a residual activity [24] of 100%. For the same compound, the residual activity [25] was 100%, the residual activity [26] was 97% and the residual activity [27] was 98%. It also gave a residual activity [28] of 55%, a residual activity [29] of 96% and a residual activity [30] of 100%. It also gave a residual activity [31] of 100%, a residual activity [32] of 80% and a residual activity [33] of 85%. For the same compound, the residual activity [34] was 100%, the residual activity [35] was 88% and the residual activity [36] was 100%. The residual activity [37] was 90%, the residual activity [38] was 81% and the residual activity [39] was 100%. The residual activity [40] was 55%, the residual activity [41] was 67% and the residual activity [42] was 88%. The residual activity [43] was 100%, the residual activity [44] was 80% and the inhibition [45] was -3.79%.
For Cn1cncc1[C@](O)(COc1ccc(C#N)cc1-c1ccc(OC(F)(F)F)cc1)c1ccc(C#N)cc1 [ABT-100], the residual activity [1] was 91%, the residual activity [2] was 100% and the residual activity [3] was 100%. The residual activity [4] was 100%, the residual activity [5] was 97% and the residual activity [6] was 93%. The residual activity [7] was 74%, the residual activity [8] was 52% and the residual activity [9] was 86%. The residual activity [10] was 100%, the residual activity [11] was 100% and the residual activity [12] was 100%. For the same compound, the residual activity [13] was 95%, the residual activity [14] was 100% and the residual activity [15] was 81%. It also gave a residual activity [16] of 93%, a residual activity [17] of 97% and a residual activity [18] of 71%. The residual activity [19] was 91%, the residual activity [20] was 79% and the residual activity [21] was 100%. It also gave a residual activity [22] of 78%, a residual activity [23] of 84% and a residual activity [24] of 86%. The residual activity [25] was 90%, the residual activity [26] was 93% and the residual activity [27] was 100%. For the same compound, the residual activity [28] was 71%, the residual activity [29] was 90% and the residual activity [30] was 98%. The residual activity [31] was 90%, the residual activity [32] was 97% and the residual activity [33] was 82%. The residual activity [34] was 100%, the residual activity [35] was 89% and the residual activity [36] was 100%. It also gave a residual activity [37] of 95%, a residual activity [38] of 76% and a residual activity [39] of 90%. The residual activity [40] was 100%, the residual activity [41] was 100% and the residual activity [42] was 56%. For the same compound, the residual activity [43] was 100%, the residual activity [44] was 84% and the inhibition [45] was -6.36%.

Reference: ChEMBL document CHEMBL4507257, “Data for DCP probe ABT-100” (2021)
